The conditions of data set [1]: Adiabatic calorimetry.
Data set [2] is described as follows: Molar enthalpy of transition or fusion. The note with it: Adiabatic calorimetry.

± gives the expanded uncertainty stated by the source.

Results on 1 compound are retold here after the NIST ThermoML archive (doi:10.1016/j.tca.2013.05.039).

On to `C1CCCCC1` [cyclohexane], for which the Triple point temperature in data set [1] (Crystal 2) stood at 186.18 ± 0.049 K; in data set [1] (Crystal), 279.86 ± 0.066 K. Moreover, the “Molar enthalpy of transition or fusion” value in data set [2] (Crystal 2) amounted to 1.61 ± 0.0163 kcal/mol; in data set [2] (Crystal), 0.642 ± 0.0129 kcal/mol.
